Measurements published in publication PMC10211317, “Identification of ARUK2002821 as an isoform-selective PI5P4Kα inhibitor” (RSC Medicinal Chemistry, 2023).

Tests used:
PI5P4Kβ = target: T1, PI5P4Kβ (Homo sapiens, UniProt P78356); experiment: ADP-Glo kinase assay PI5P4Kβ; format: biochemical; conditions: single concentration of 100 μM
T1 sequence (P78356 1-416): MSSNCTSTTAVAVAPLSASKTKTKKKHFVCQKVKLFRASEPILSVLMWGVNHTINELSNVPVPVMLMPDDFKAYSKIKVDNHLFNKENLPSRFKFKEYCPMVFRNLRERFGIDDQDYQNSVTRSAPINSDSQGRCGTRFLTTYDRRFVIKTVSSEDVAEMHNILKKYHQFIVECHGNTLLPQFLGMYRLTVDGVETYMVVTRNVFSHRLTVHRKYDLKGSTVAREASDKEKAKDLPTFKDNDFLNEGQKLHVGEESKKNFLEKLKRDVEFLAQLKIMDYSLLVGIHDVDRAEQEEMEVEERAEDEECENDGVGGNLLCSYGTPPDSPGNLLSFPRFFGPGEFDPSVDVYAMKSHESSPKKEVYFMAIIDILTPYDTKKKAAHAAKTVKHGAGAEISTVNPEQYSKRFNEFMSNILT
Experimental: Assays to determine kinase activity of PI5P4Ks in the presence of inhibitors using an ADP-Glo assay (Promega) were performed as described previously.[28] […] Cultures were induced with 0.4 mM IPTG overnight and probe-sonicated in the presence of protease inhibitors. […] The cleaved protein was further purified by size-exclusion chromatography (ÄKTA Pure, Cytiva). […] The protein purity was confirmed by sodium dodecyl sulfate–polyacrylamide gel electrophoresis, and the concentration was determined by colorimetric assay (Bio-Rad).
Statistical analysis was performed using nonparametric testing in Prism 8 (GraphPad). Activity pIC50 values and in vivo binding pEC50 values were estimated using a 4-parameter fit (Dotmatics).

[1] = Mouse microsomal stability; format: in vitro ADME; conditions: mouse liver microsomes; read-out: MLM t1/2
Experimental: ADMET experimental methods […]
Mouse Microsomal stability: analysis was performed by Cyprotex Discovery. Briefly, test compounds in DMSO were incubated at a concentration of 1 µM (0.25% DMSO final) with mouse hepatic microsomes (0.5 mg protein/mL) in the presence of NADPH (1 mM) at 37 °C. Aliquots were taken at time intervals (0, 5, 15, 30 and 45 min) and stopped by transferring into acetonitrile, then analysed using generic LC-MS/MS conditions for compound remaining, allowing the determination of the half-life for the compound.

ABL = ABL (Homo sapiens, UniProt P00519); experiment: Premier Screen kinase panel (MRC PPU); format: biochemical; conditions: ABL (Entrez ABL1), read-out: Residual activity (%)
Experimental: (§1) room temperature with shaking for 30 minutes. The kinase concentration in the eluates was measured by qPCR.
(§2) using ADP-GloTM assay at the MRC PPU International Centre for Kinase Profiling, University of Dundee.
(§3) Conducted by MRC PPU International Centre
(§4) Conducted by MRC PPU International Centre for […]

BRSK1 = BRSK1 (Homo sapiens, UniProt Q8TDC3); experiment: Premier Screen kinase panel (MRC PPU); format: biochemical; conditions: BRSK1 (Entrez BRSK1), read-out: Residual activity (%)
Experimental: as §1, §2, §3, §4

ERK2 = ERK2 (Homo sapiens, UniProt P28482); experiment: Premier Screen kinase panel (MRC PPU); format: biochemical; conditions: ERK2 (Entrez MAPK1), read-out: Residual activity (%)
Experimental: as §1, §2, §3, §4

ERK5 = ERK5 (Homo sapiens, UniProt Q13164); experiment: Premier Screen kinase panel (MRC PPU); format: biochemical; conditions: ERK5 (Entrez MAPK7), read-out: Residual activity (%)
Experimental: as §1, §2, §3, §4

HER4 = HER4 (Homo sapiens, UniProt Q15303); experiment: Premier Screen kinase panel (MRC PPU); format: biochemical; conditions: HER4 (Entrez ERBB4), read-out: Residual activity (%)
Experimental: as §1, §2, §3, §4

IRR = IRR (Homo sapiens, UniProt P14616); experiment: Premier Screen kinase panel (MRC PPU); format: biochemical; conditions: IRR (Entrez INSRR), read-out: Residual activity (%)
Experimental: as §1, §2, §3, §4

JNK2 = JNK2 (Homo sapiens, UniProt P45984); experiment: Premier Screen kinase panel (MRC PPU); format: biochemical; conditions: JNK2 (Entrez MAPK9), read-out: Residual activity (%)
Chain of JNK2 (P45984 whole entry): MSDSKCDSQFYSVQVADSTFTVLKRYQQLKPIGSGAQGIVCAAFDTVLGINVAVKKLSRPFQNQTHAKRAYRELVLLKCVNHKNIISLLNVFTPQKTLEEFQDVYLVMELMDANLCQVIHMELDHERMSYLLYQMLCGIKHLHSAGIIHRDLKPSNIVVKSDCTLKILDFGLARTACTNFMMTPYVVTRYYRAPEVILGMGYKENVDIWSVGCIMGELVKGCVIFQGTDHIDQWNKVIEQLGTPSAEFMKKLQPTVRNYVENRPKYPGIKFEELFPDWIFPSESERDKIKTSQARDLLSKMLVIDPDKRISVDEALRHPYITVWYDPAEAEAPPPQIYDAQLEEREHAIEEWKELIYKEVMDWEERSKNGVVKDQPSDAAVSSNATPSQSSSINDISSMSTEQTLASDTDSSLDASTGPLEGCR
Experimental: as §1, §2, §3, §4

JNK3 = JNK3 (Homo sapiens, UniProt P53779); experiment: Premier Screen kinase panel (MRC PPU); format: biochemical; conditions: JNK3 (Entrez MAPK10), read-out: Residual activity (%)
Chain of JNK3 (P53779 whole entry): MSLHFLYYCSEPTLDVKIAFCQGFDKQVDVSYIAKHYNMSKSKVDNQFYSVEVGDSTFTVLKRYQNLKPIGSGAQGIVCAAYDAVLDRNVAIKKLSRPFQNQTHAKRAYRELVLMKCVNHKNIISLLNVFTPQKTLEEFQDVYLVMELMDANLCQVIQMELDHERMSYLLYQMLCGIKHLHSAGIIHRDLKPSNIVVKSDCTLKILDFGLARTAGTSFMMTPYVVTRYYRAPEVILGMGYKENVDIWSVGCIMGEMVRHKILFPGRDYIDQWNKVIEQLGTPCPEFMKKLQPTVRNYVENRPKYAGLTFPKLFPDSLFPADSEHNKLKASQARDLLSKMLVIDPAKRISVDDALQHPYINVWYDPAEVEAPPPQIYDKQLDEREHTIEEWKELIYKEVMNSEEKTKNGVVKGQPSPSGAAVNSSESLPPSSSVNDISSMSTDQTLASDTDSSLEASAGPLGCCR
Experimental: as §1, §2, §3, §4

Lck = Lck (Homo sapiens, UniProt P06239); experiment: Premier Screen kinase panel (MRC PPU); format: biochemical; conditions: Lck (Entrez LCK), read-out: Residual activity (%)
Chain of Lck (P06239 whole entry): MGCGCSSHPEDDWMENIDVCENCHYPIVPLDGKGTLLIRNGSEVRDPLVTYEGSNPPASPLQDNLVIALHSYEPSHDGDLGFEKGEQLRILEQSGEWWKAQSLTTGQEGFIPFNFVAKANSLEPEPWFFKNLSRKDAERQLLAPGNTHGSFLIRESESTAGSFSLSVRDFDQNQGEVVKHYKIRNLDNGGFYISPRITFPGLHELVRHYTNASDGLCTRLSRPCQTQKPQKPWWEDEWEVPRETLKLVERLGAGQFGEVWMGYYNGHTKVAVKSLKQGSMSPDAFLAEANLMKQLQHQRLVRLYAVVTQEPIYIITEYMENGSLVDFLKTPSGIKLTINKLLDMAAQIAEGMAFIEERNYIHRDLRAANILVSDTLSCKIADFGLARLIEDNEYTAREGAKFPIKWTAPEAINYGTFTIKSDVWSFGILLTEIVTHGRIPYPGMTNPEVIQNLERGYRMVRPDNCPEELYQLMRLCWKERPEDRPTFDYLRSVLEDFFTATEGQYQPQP
Experimental: as §1, §2, §3, §4

MAP4K5 = MAP4K5 (Homo sapiens, UniProt Q9Y4K4); experiment: Premier Screen kinase panel (MRC PPU); format: biochemical; conditions: MAP4K5 (Entrez MAP4K5), read-out: Residual activity (%)
Experimental: as §1, §2, §3, §4

MARK2 = MARK2 (Homo sapiens, UniProt Q7KZI7); experiment: Premier Screen kinase panel (MRC PPU); format: biochemical; conditions: MARK2 (Entrez MARK2), read-out: Residual activity (%)
Chain of MARK2 (Q7KZI7 whole entry, species assumed): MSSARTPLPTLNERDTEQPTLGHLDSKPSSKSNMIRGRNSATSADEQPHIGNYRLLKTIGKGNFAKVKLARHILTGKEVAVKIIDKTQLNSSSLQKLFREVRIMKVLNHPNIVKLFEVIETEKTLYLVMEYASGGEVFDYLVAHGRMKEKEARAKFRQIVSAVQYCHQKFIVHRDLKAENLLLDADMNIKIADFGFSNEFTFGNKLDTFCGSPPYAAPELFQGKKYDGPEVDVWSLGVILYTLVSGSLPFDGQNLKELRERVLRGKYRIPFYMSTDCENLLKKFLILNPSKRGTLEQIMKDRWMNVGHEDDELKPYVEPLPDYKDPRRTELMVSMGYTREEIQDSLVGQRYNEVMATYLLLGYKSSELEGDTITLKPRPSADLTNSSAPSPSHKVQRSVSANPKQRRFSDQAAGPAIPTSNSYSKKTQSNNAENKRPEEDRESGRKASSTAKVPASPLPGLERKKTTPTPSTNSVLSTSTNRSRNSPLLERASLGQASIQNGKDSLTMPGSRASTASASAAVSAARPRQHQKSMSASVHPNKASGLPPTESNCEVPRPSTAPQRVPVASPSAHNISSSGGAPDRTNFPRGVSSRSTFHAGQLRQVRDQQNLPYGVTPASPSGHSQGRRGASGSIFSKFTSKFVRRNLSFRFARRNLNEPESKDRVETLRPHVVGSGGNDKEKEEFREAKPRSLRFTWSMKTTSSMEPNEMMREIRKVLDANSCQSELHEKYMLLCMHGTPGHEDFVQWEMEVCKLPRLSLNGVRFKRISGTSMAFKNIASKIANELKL
Experimental: as §1, §2, §3, §4

MKK6 = MKK6 (Homo sapiens, UniProt P52564); experiment: Premier Screen kinase panel (MRC PPU); format: biochemical; conditions: MKK6 (Entrez MAP2K6), read-out: Residual activity (%)
Experimental: as §1, §2, §3, §4

NUAK1 = NUAK1 (Homo sapiens, UniProt O60285); experiment: Premier Screen kinase panel (MRC PPU); format: biochemical; conditions: NUAK1 (Entrez NUAK1), read-out: Residual activity (%)
Chain of NUAK1 (O60285 whole entry, species assumed): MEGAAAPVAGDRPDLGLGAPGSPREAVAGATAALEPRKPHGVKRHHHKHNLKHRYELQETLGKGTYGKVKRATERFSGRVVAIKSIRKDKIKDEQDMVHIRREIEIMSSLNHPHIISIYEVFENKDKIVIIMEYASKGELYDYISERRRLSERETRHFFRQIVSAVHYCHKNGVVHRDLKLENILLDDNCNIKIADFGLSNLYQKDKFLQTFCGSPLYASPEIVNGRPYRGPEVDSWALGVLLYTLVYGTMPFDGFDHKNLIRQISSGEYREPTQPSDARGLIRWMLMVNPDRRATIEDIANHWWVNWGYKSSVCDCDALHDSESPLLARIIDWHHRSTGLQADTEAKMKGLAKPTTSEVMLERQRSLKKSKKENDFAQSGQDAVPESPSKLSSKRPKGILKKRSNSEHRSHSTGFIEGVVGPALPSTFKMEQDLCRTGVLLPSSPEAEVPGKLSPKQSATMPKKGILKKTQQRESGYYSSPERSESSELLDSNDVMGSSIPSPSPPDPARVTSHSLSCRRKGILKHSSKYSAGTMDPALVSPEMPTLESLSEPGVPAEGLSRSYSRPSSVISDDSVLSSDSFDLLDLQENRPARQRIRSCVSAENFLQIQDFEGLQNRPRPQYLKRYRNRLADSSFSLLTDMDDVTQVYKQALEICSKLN
Experimental: as §1, §2, §3, §4

PAK6 = PAK6 (Homo sapiens, UniProt Q9NQU5); experiment: Premier Screen kinase panel (MRC PPU); format: biochemical; conditions: PAK6 (Entrez PAK6), read-out: Residual activity (%)
Chain of PAK6 (Q9NQU5 whole entry): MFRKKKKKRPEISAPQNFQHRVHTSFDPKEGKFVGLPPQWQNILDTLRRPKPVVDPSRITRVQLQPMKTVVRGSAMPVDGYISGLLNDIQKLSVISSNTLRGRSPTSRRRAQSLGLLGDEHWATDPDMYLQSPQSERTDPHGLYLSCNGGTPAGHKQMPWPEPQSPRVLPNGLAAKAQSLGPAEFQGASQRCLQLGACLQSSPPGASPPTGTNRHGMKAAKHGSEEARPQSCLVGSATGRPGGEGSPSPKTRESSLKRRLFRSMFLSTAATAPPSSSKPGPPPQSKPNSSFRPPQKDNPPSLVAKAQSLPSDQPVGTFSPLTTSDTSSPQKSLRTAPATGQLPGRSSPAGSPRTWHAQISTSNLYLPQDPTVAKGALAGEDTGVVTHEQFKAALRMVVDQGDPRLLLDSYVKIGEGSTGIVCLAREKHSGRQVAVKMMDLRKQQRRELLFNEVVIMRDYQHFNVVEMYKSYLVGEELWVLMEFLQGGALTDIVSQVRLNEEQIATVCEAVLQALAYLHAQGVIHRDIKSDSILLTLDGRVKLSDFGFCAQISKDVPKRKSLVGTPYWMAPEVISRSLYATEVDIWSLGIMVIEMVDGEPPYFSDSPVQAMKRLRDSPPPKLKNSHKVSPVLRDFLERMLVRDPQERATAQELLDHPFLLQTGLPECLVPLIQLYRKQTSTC
Experimental: as §1, §2, §3, §4

PKD1 = PKD1 (Homo sapiens, UniProt Q15139); experiment: Premier Screen kinase panel (MRC PPU); format: biochemical; conditions: PKD1 (Entrez PKD1), read-out: Residual activity (%)
Experimental: as §1, §2, §3, §4

PLK1 = PLK1 (Homo sapiens, UniProt P53350); experiment: Premier Screen kinase panel (MRC PPU); format: biochemical; conditions: PLK1 (Entrez PLK1), read-out: Residual activity (%)
Chain of PLK1 (P53350 whole entry): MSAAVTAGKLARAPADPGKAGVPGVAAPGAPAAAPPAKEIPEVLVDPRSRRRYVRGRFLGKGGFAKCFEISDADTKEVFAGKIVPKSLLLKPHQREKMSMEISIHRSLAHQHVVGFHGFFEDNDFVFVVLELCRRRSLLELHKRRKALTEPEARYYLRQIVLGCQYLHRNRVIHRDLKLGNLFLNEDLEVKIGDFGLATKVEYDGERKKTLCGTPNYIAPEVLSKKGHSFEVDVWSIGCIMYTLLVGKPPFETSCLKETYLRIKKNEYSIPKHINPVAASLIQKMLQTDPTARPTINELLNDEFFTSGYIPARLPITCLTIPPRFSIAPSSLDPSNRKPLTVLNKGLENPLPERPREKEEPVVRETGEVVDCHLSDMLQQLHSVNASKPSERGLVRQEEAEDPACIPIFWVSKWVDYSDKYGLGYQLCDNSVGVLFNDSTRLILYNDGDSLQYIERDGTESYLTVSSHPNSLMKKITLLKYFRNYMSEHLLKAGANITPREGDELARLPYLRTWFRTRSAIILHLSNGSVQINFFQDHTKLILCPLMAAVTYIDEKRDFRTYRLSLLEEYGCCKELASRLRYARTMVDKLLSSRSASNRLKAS
Experimental: as §1, §2, §3, §4

S6K1 = S6K1 (Homo sapiens, UniProt P23443); experiment: Premier Screen kinase panel (MRC PPU); format: biochemical; conditions: S6K1 (Entrez RPS6KB1), read-out: Residual activity (%)
Experimental: as §1, §2, §3, §4

SmMLCK = SmMLCK (Homo sapiens, UniProt Q15746); experiment: Premier Screen kinase panel (MRC PPU); format: biochemical; conditions: SmMLCK (Entrez MYLK), read-out: Residual activity (%)
Experimental: as §1, §2, §3, §4

TAK1 = TAK1 (Homo sapiens, UniProt O43318); experiment: Premier Screen kinase panel (MRC PPU); format: biochemical; conditions: TAK1 (Entrez MAP3K7), read-out: Residual activity (%)
Chain of TAK1 (O43318 1-303 limits assumed): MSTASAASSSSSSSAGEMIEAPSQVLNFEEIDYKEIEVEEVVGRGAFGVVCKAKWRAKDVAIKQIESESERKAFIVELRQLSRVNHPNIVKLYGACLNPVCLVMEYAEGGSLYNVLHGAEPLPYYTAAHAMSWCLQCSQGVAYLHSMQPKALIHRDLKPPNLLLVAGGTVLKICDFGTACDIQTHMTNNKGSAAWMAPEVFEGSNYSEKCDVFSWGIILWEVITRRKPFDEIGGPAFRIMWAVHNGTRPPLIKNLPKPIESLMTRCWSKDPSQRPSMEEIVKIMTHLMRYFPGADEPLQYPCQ
Experimental: as §1, §2, §3, §4

p38g MAPK = p38g MAPK (Homo sapiens, UniProt P53778); experiment: Premier Screen kinase panel (MRC PPU); format: biochemical; conditions: p38g MAPK (Entrez MAPK13), read-out: Residual activity (%)
Chain of p38g MAPK (P53778 whole entry): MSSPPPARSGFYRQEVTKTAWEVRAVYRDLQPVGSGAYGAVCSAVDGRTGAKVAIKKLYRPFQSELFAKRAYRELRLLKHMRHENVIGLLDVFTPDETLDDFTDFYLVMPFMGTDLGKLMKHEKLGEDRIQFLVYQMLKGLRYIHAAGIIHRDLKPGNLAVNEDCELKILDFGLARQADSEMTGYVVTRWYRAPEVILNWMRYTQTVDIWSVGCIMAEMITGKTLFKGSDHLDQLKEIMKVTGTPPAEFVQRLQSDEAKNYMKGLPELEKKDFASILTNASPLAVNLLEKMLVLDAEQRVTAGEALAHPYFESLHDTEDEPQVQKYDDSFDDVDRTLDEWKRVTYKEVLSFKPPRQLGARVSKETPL
Experimental: as §1, §2, §3, §4

In the case of `COc1ccc(Nc2ncnc3c2ccn3-c2ccc(C)c(C)c2)cc1Cl` [compound 36], the inhibition at 100 µM (PI5P4Kβ) is reported as 4%, the half-life at 1 µM [1] is reported as 11 min and the remaining activity at 1 µM (ABL) is reported as 89%. It also gave a remaining activity at 1 µM (BRSK1) of 97%, a remaining activity at 1 µM (ERK2) of 110% and a remaining activity at 1 µM (ERK5) of 95%. It also gave a remaining activity at 1 µM (HER4) of 80%, a remaining activity at 1 µM (IRR) of 96% and a remaining activity at 1 µM (JNK2) of 106%. The remaining activity at 1 µM (JNK3) was 89%, the remaining activity at 1 µM (Lck) was 95% and the remaining activity at 1 µM (MAP4K5) was 80%. For the same molecule, the remaining activity at 1 µM (MARK2) was 127%, the remaining activity at 1 µM (MKK6) was 115% and the remaining activity at 1 µM (NUAK1) was 138%. It also gave a remaining activity at 1 µM (PAK6) of 90%, a remaining activity at 1 µM (PKD1) of 93% and a remaining activity at 1 µM (PLK1) of 90%. For the same molecule, the remaining activity at 1 µM (S6K1) was 89%, the remaining activity at 1 µM (SmMLCK) was 99% and the remaining activity at 1 µM (TAK1) was 91%. For the same molecule, the remaining activity at 1 µM (p38g MAPK) was 101%.
